Patent US5250542A, “Peripherally selective piperidine carboxylate opioid antagonists” (Eli Lilly and Company, priority 1992, dated 1993)
Counter-ions that a name gives are not always drawn. Like-named read-outs stand apart in the source and are kept apart here.

Legend:
[1] = biological target: T1, opioid receptor (Mus musculus, UniProt P42866); assay: mouse writhing analgesis test: block of morphine-induced analgesia; format: in vivo, CF-1 male mice; parameters: unit not given here; settings: dose of antagonist that reduced the inhibition of writhing produced by 1.25 mg/kg morphine sulfate to 50%, subcutaneous, 20 min before acetic acid
T1 construct: Five CF-1 male mice (Charles River, Portage, Mich.); from tissue; host or cells: living CF-1 male mice (in vivo test; endogenous receptor)
Summary of the method: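 Male CF-1 mice (~20 g, fasted overnight, n=5) dosed subcutaneously 20 min before i.p. 0.6% acetic acid; writhes counted for 10 min starting 5 min post-injection. Antagonism measured as blockade of morphine-induced inhibition of writhing, percent versus vehicle controls; ED50 defined as 50% writhing inhibition.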

[2] = biological target: T2, peripheral opioid receptors (Mus musculus, UniProt P42866); assay: precipitated diarrhea in morphine-maintained mice (peripheral opioid activity) and comparison with the writhing test; format: in vivo; parameters: ED50 (diarrhea): unit not given beside the values; settings: for Ratio (AD50 mouse writhing test / ED50 mouse diarrhea test): higher ratio = greater relative antagonism of peripheral opioid receptors; for ED50: mouse, 0.5 h; for ED50 / ED50 (diarrhea): morphine-maintained mice, antagonist subcutaneous or oral, 30 min observation; for ED50 (diarrhea): 30 min
T2 construct: Mice maintained (6 mice/cage) on 0.01M saccharin water with 1 g/1 morphine sulfate; from tissue; host or cells: living morphine-maintained mice (in vivo test; endogenous receptor)
Summary of the method: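 Morphine-dependent mice (1 g/l morphine sulfate in drinking water ≥10 days, withdrawn 45 min before dosing) received antagonist subcutaneously or orally, 5 mice/dose. Diarrhea (and jumping) were scored over 30 min and doses lowered to find the diarrhea threshold. Peripheral selectivity was taken as writhing AD50 divided by diarrhea ED50.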

[3] = biological target: T3, mu receptor (Rattus norvegicus, UniProt P33535); assay: opioid receptor binding assay, [3H] NAL (tritiated naloxone), mu receptor; parameters: species or system rat (Male Sprague Dawley), brain minus cerebellum; settings: for inhibition at 0.01 µM / inhibition at 0.1 µM: 20 min
T3 construct: rat whole brain minus cerebellum for mu was homogenized; from tissue; host or cells: brain of male Sprague Dawley rats, whole brain minus cerebellum, homogenate fraction
Summary of the method: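 Displacement of [3H]naloxone was measured on rat whole brain minus cerebellum membranes, preincubated 20 min and incubated 20 min at 37° C, with filtration separating bound ligand. Ki was derived from IC50 and ligand KD. Percent displacement was also recorded at 10 nM and 100 nM test compound.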

[4] = read-out: % displacement at 10 nM, 10 nM test compound, [3H] naloxone 0.5 nM
[5] = read-out: % displacement at 100 nM, 100 nM test compound, [3H] naloxone 0.5 nM
[6] = 10 nM test compound, [3H] naloxone 0.5 nM, read-out: % displacement at 10 nM
[7] = read-out: % displacement at 100 nM
[8] = 100 nM test compound, [3H] naloxone 0.5 nM, read-out: % displacement at 100 nM
[9] = read-out: % displacement at 10 nM

T2 sequence (P42866 whole entry): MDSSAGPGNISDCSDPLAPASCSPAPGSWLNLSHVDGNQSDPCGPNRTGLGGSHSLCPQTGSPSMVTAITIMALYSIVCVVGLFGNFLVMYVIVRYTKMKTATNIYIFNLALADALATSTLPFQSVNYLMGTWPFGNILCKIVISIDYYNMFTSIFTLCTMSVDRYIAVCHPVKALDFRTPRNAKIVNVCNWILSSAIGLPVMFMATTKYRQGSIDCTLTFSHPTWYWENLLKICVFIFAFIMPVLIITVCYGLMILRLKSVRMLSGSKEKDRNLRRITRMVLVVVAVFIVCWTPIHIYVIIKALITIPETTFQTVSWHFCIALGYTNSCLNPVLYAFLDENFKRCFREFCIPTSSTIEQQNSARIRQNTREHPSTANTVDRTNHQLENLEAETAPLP
T1 sequence (P42866 whole entry): as above
T3 sequence (P33535 whole entry): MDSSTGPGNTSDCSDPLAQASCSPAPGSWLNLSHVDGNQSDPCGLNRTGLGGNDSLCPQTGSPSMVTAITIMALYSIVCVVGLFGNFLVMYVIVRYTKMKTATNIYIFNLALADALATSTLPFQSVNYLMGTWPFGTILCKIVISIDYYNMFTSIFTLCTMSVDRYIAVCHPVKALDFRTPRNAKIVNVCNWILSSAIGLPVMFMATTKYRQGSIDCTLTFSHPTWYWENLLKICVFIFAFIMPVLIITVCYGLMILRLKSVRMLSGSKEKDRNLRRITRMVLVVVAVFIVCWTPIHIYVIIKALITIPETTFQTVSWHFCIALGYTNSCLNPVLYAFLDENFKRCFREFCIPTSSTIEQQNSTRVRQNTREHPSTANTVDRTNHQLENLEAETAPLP

Structure (SMILES)	AD50 [1]	Ratio (AD50 mouse writhing test / ED50 mouse diarrhea test) [2]	ED50 [2] [mg/kg]	inhibition at 0.01 µM [3, 6] [%]	inhibition at 0.1 µM [3, 8] [%]	other results
C[C@H]1CN(CC(Cc2ccccc2)C(=O)NCC(=O)NCC(=O)NCc2ccccc2)CC[C@@]1(C)c1cccc(O)c1 (relative stereo) [Example 73]	20	11	1.73	–	–	Ki [3]: 1.8 nM; inhibition at 0.01 µM [3, 4]: 84%; inhibition at 0.1 µM [3, 5]: 90%
CCOC(=O)CN(C)C(=O)CNC(=O)C(Cc1ccccc1)CN1CC[C@@](C)(c2cccc(O)c2)[C@@H](C)C1 (relative stereo) [Example 75]	5.2	71	0.073	–	–	Ki [3]: 1.15 nM; inhibition at 0.01 µM [3, 4]: 90%; inhibition at 0.1 µM [3, 5]: 99%
CCNC(=O)CNC(=O)CNC(=O)C(Cc1ccccc1)CN1CC[C@@](C)(c2cccc(O)c2)[C@@H](C)C1 (relative stereo) [Example 77]	> 40	> 31	1.31	–	–	Ki [3]: 1.35 nM; inhibition at 0.01 µM [3, 4]: 88%; inhibition at 0.1 µM [3, 5]: 95%
COC(=O)COC(=O)CNC(=O)C(Cc1ccccc1)CN1CC[C@@](C)(c2cccc(O)c2)[C@@H](C)C1 (relative stereo) [Example 85]	9.5	190	0.05	93	–	inhibition at 0.1 µM [3, 7]: 98%
CCCCCOC(=O)CNC(=O)C(Cc1ccccc1)CN1CC[C@@](C)(c2cccc(O)c2)[C@@H](C)C1 (relative stereo) [Example 86]	> 40	> 2353	0.017	74	91	–
C[C@H]1CN(CC(Cc2ccccc2)C(=O)NCC(=O)OCC(N)=O)CC[C@@]1(C)c1cccc(O)c1 (relative stereo) [Example 87]	19	27	0.71	94	99	–
CNC(=O)COC(=O)CNC(=O)C(Cc1ccccc1)CN1CC[C@@](C)(c2cccc(O)c2)[C@@H](C)C1 (relative stereo) [Example 88]	13.5	193	0.07	93	99	–
CCNC(=O)COC(=O)CNC(=O)C(Cc1ccccc1)CN1CC[C@@](C)(c2cccc(O)c2)[C@@H](C)C1 (relative stereo) [Example 89]	6.0	< 1	> 10	94	99	–
C[C@H]1CN(CC(Cc2ccccc2)C(=O)NCC(=O)OCC(=O)N(C)C)CC[C@@]1(C)c1cccc(O)c1 (relative stereo) [Example 90]	2.2	22	0.1	93	99	–
C[C@H]1CN(CC(Cc2ccccc2)C(=O)NCC(=O)NCC2CCCCC2)CC[C@@]1(C)c1cccc(O)c1 (relative stereo) [Example 91]	4.0	8	0.5	69	–	inhibition at 0.1 µM [3, 7]: 94%
COC1CCC(OC(=O)CNC(=O)C(Cc2ccccc2)CN2CC[C@@](C)(c3cccc(O)c3)[C@@H](C)C2)CC1 (relative stereo) [Example 92]	7.7	1540	0.005	85	–	inhibition at 0.1 µM [3, 7]: 97%
C[C@H]1CN(CC(Cc2ccccc2)C(=O)NCC(=O)OCC(=O)NCc2ccccc2)CC[C@@]1(C)c1cccc(O)c1 (relative stereo) [Example 93]	29.0	3625	0.008	81	95	–
CC(=O)OC(C)OC(=O)CNC(=O)C(Cc1ccccc1)CN1CC[C@@](C)(c2cccc(O)c2)[C@@H](C)C1 (relative stereo) [Example 94]	20	2222	0.009	76	95	–
Cc1oc(=O)oc1COC(=O)CNC(=O)C(Cc1ccccc1)CN1CC[C@@](C)(c2cccc(O)c2)[C@@H](C)C1 (relative stereo) [Example 95]	2.7	14	0.19	79	–	inhibition at 0.1 µM [3, 7]: 94%
CCOC(=O)C(Cc1ccccc1)CN1CC[C@@](C)(c2cccc(OC)c2)[C@@H](C)C1 (single isomer, unassigned) [Example 78B]	1.6	29	0.055	0	2	–
COc1cccc([C@]2(C)CCN(CC(Cc3ccccc3)C(=O)O)C[C@@H]2C)c1 (single isomer, unassigned) [Example 79]	1.7	13	0.13	0	15	–
CNC(=O)C(Cc1ccccc1)CN1CC[C@@](C)(c2cccc(OC)c2)[C@@H](C)C1 (single isomer, unassigned) [Example 80]	3.9	24	0.16	0	37	–
CCOC(=O)CNC(=O)C(Cc1ccccc1)CN1CC[C@@](C)(c2cccc(OC)c2)[C@@H](C)C1 (single isomer, unassigned) [Example 81]	13.2	4	3.28	21	55	–
CNC(=O)CNC(=O)C(Cc1ccccc1)CN1CC[C@@](C)(c2cccc(OC)c2)[C@@H](C)C1 (single isomer, unassigned) [Example 82]	.95	17	0.055	31	73	–
CCNC(=O)CNC(=O)C(Cc1ccccc1)CN1CC[C@@](C)(c2cccc(OC)c2)[C@@H](C)C1 (single isomer, unassigned) [Example 83]	0.71	2	0.04	52	83	–
CC(C)COC(=O)CNC(=O)C(Cc1ccccc1)CN1CC[C@](C)(c2cccc(O)c2)[C@H](C)C1 (single isomer, unassigned) [Example 98D]	–	–	–	–	–	AD50 ([1]; listed as 98D**, 1.25 mg/kg): 15.3; AD50 ([1]; listed as 98D*, 1.25 mg/kg): 2.9; Ratio (AD50 mouse writhing test / ED50 mouse diarrhea test) ([2]; listed as 98D*): 4; Ratio (AD50 mouse writhing test / ED50 mouse diarrhea test) ([2]; listed as 98D**): 255; ED50 (diarrhea) ([2]; listed as 98D**): 0.06; ED50 (diarrhea) ([2]; listed as 98D*): 0.76; % displacement at 100 nM [3]: 96%; inhibition at 0.01 µM [3, 9]: 80%; inhibition at 0.01 µM [3, 4]: 57%; inhibition at 0.1 µM [3, 5]: 92%
C[C@@H]1CN(CC(Cc2ccccc2)C(=O)NCC(=O)O)CC[C@]1(C)c1cccc(O)c1 (single isomer, unassigned) [Example 98E]	6.2	62	0.1	–	–	inhibition at 0.01 µM [3, 9]: 69%; inhibition at 0.1 µM [3, 7]: 87%
C[C@H]1CN(CC(Cc2ccccc2)C(=O)NCC(=O)O)CC[C@@]1(C)c1cccc(O)c1 (single isomer, unassigned; (+)) [Example 97E, monohydrate]	8.9	127	0.07	–	–	inhibition at 0.01 µM [3, 9]: 80%; inhibition at 0.1 µM [3, 7]: 90%
C[C@H]1CN(CC(CC2CCCCC2)C(=O)NCCC(=O)O)CC[C@@]1(C)c1cccc(O)c1 (stereo partly drawn) [Example 35, 3-[[3-[4-(3-hydroxyphenyl)-3,4-dimethyl-1-piperidinyl]-2-(cyclohexylmethyl)-1-oxopropyl]-amino]propanoic acid hydrochloride]	40	667	0.06	–	–	Ki [3]: 0.54 nM; inhibition at 0.01 µM [3, 4]: 98%; inhibition at 0.1 µM [3, 5]: 100%
